Experimental findings from patent publication US8952176B2, “Heterocyclic compound having type I 11 β hydroxysteroid dehydrogenase inhibitory activity” (Shionogi & Co., Ltd., priority 2005, dated 2015) are described below.

Assay [1] concerns the target recombinant human 11β-HSD1 (Homo sapiens, UniProt P28845). As to the kind of experiment: Enzyme activity assay on human 11β-HSD1 (HTRF cortisol). The class given is biochemical. As to conditions: recombinant human 11β-HSD1, 5 μM cortisone, 2 hours at 37° C. How it is done: Evaluation of 11β-HSD1 Inhibitors (Enzyme Activity Assay on Human 11β-HSD1)
Enzymatic activity for human 11β-HSD1 was determined in a 10 μl final volume of assay mixture containing 50 mM sodium phosphate buffer (pH 7.6), 1 mg/ml bovine serum albumin, 0.42 mg/ml NADPH, 1.26 mg/ml glucose-6-phosphate, glucose-6-phosphate dehydrogenase, test compound, recombinant human 11β-HSD1, and 5 μM cortisone as substrate. The reaction was started with the addition of cortisone. After incubation for 2 hours at 37° C., 5 μl of europium cryptate-labelled anti-cortisol antibody and 5 μl of XL665-labeled cortisol were added. After further incubation for 2 hours at room temperature, the homogeneous time-resolved fluorescence (HTRF) signal was measured. The cortisol production was quantitated by a standard curve generated with several known concentrations of cortisol in each assay.
The amount of cortisol production without compounds was served as control, and the percent inhibition by test compound at each concentration was calculated. The IC50 value of the compound for 11β-HSD1 was obtained using the inhibition curve generated by plotting the percent inhibition versus the concentration of text compound.
A general note: Time-resolved FRET reads energy transfer from a long-lived donor to a nearby acceptor.

For assay [2], the target named is recombinant mouse 11β-HSD1 (Mus musculus, UniProt P50172). As to the kind of experiment: Enzyme activity assay on mouse 11β-HSD1 (HTRF corticosterone). To be noted: recombinant mouse 11β-HSD1, 11-dehydrocorticosterone substrate, 2 hours at 37° C. The class given is biochemical. On the procedure: […] (Enzyme Activity Assay on Mouse 11β-HSD1)
Enzymatic activity for mouse 11β-HSD1 activity was determined in a 10 μl final volume of assay mixture containing 50 mM sodium phosphate buffer (pH 7.6), 1 mg/ml bovine serum albumin, 0.042 mg/ml NADPH, 1.26 mg/ml glucose-6-phosphate, glucose-6-phosphate dehydrogenase, test compound, recombinant mouse 11β-HSD1, and […] 11-dehydrocorticosterone as substrate. The reaction was started with the addition of 11-dehydrocorticosterone. After incubation for 2 hours at 37° C., 5 μl of europium cryptate-labelled anti-cortisol antibody and 5 μl of XL665-labeled cortisol were added. After further incubation for 2 hours at room temperature, the HTFR signal was measured. The corticosterone production was quantitated by a standard curve generated with several known concentrations of corticosterone in each assay.
Corticosterone production without compounds was served as control, and the percent inhibition by compound at each concentration was calculated. The IC50 value of the compound for 11β-HSD1 was obtained using the inhibition curve generated by plotting the percent inhibition versus the concentration of test compound.

recombinant mouse 11β-HSD1, sequence (P50172 whole entry): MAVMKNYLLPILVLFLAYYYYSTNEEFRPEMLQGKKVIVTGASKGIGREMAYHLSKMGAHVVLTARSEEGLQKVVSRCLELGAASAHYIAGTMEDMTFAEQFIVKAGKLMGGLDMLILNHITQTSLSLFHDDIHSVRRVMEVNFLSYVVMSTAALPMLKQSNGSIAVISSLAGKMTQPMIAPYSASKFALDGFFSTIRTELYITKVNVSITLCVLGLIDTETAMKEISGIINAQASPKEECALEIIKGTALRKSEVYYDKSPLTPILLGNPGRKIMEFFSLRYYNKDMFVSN
recombinant human 11β-HSD1, sequence (P28845 whole entry): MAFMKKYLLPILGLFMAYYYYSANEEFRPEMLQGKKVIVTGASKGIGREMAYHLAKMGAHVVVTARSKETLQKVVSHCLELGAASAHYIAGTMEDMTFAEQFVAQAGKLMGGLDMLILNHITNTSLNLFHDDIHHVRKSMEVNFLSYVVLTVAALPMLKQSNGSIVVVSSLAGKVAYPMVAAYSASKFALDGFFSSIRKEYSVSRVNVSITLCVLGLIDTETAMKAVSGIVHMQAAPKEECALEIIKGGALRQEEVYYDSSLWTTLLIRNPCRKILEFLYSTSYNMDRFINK

As to `COc1noc(C(=O)c2ccccc2)c1S(=O)(=O)c1ccccc1` [Compound A-20], the IC50 in assay [1] was 93 nM; in assay [2], 5900 nM.

Consider `Cc1noc(C(=O)NC23CC4CC(CC(C4)C2)C3)c1SC1CCCCC1` [Compound A-12], for which the IC50 in assay [1] was found to be 80 nM; in assay [2] it was 6000 nM.

With `Cc1noc(C(=O)NC23CC4CC(CC(C4)C2)C3)c1Sc1ccccc1` [Compound A-1], the values for the IC50 in assay [1] and in assay [2] were 84 nM and 21000 nM, respectively.

Take `Cc1noc(C(=O)c2ccccc2)c1SC1CCCCC1` [Compound A-15]: the figures for the IC50 in assay [1] and in assay [2] were 16 nM and 11600 nM, respectively.

Turning to `Cc1noc(C(=O)NC23CC4CC(CC(C4)C2)C3)c1SC1CCCCCC1` [Compound A-21], the IC50 in assay [1] was found to be 15 nM; in assay [2], 21000 nM.

Broadly, the IC50 is the concentration that inhibits the measured activity by half.
